In patent US9504669B2, “Spliceostatin analogs and methods for their preparation” (PFIZER INC., priority 2012, dated 2016):
pIC50: −log10 of the molar value.

Tests used:
[1] = system: MDA-MB-361-DYT2 (breast cancer) cells; assay: In vitro cell assay (MTS cell viability), MDA-MB-361-DYT2; type: cell-based; conditions: free compounds (natural products and synthetic analogs), cell viability 96 hours after treatment
Protocol: (§1) Target expressing (BT474 (breast cancer), N87 (gastric cancer), HCC1954 (breast cancer), MDA-MB-361-DYT2 (breast cancer)) or non-expressing (MDA-MB-468) cells were seeded in 96-well cell culture plates for 24 hours before treatment. Cells were treated with 3-fold serially diluted antibody-drug conjugates or free compounds (i.e., no antibody conjugated to the drug) in duplicate at 10 concentrations. Cell viability was determined by CellTiter 96® AQueous One Solution Cell Proliferation MTS Assay (Promega, Madison Wis.) 96 hours after treatment. Relative cell viability was determined as percentage of untreated control. IC50 values were calculated using a four parameter logistic model #203 with XLfit v4.2 (IDBS, Guildford, Surry, UK). The potency ranged upward from 0.0002 nm. Similar procedures and techniques were employed.

[2] = system: N87 (gastric cancer) cells; assay: In vitro cell assay (MTS cell viability), N87; type: cell-based; conditions: free compounds (natural products and synthetic analogs), cell viability 96 hours after treatment
Protocol: as §1

Row | SMILES | pIC50 ([1]; 96 h) | pIC50 ([2]; 96 h) | pIC50 [1] | pIC50 [2]
1 | CCCNC(=O)NC[C@@H]1C[C@@]2(CO2)[C@H](O)[C@@H](/C=C/C(C)=C/C[C@@H]2O[C@H](C)[C@H](NC(=O)/C=C\[C@H](C)OC(C)=O)C[C@@H]2C)O1 [#B242, (2S,3Z)-5-{[(2R,3R,5S,6S)-6-{(2E,4E)-5-[(3R,4R,5R,7S)-4-hydroxy-7-{[(propylcarbamoyl)amino]methyl}-1,6-dioxaspiro[2.5]oct-5-yl]-3-methylpenta-2,4-dien-1-yl}-2,5-dimethyltetrahydro-2H-pyran-3-yl]amino}-5-oxopent-3-en-2-yl acetate] | 8.42 | 9.24 | – | –
2 | COC(=O)C[C@@H]1C[C@@]2(CO2)[C@H](OC)[C@@H](/C=C/C(C)=C/C[C@@H]2O[C@H](C)[C@H](NC(=O)/C=C\[C@H](C)O)C[C@@H]2C)O1 [#B264, methyl [(3R,5S,7R,8R)-7-{(1E,3E)-5-[(2S,3S,5R,6R)-5-{[(2Z,4S)-4-hydroxypent-2-enoyl]amino}-3,6-dimethyltetrahydro-2H-pyran-2-yl]-3-methylpenta-1,3-dien-1-yl}-8-methoxy-1,6-dioxaspiro[2.5]oct-5-yl]acetate] | < 7.00 | < 7.00 | – | –
3 | COC(=O)C[C@@H]1C[C@@]2(CO2)[C@H](OC)[C@@H](/C=C/C(C)=C/C[C@@H]2O[C@H](C)[C@H](NC(=O)/C=C\[C@H](C)OC(C)=O)C[C@@H]2C)O1 [#B265, methyl [(3R,5S,7R,8R)-7-{(1E,3E)-5-[(2S,3S,5R,6R)-5-{[(2Z,4S)-4-(acetyloxy)pent-2-enoyl]amino}-3,6-dimethyltetrahydro-2H-pyran-2-yl]-3-methylpenta-1,3-dien-1-yl}-8-methoxy-1,6-dioxaspiro[2.5]oct-5-yl]acetate] | 8.06 | 7.99 | – | –
4 | CC(=O)O[C@@H](C)/C=C\C(=O)N[C@@H]1C[C@H](C)[C@H](C/C=C(C)/C=C/[C@H]2O[C@H](CC(=O)NCc3ccc(C(N)=O)cc3)C[C@@]3(CO3)[C@@H]2O)O[C@@H]1C [#B266, (2S,3Z)-5-{[(2R,3R,5S,6S)-6-{(2E,4E)-5-[(3R,4R,5R,7S)-7-{2-[(4-carbamoylbenzyl)amino]-2-oxoethyl}-4-hydroxy-1,6-dioxaspiro[2.5]oct-5-yl]-3-methylpenta-2,4-dien-1-yl}-2,5-dimethyltetrahydro-2H-pyran-3-yl]amino}-5-oxopent-3-en-2-yl acetate] | < 7.00 | 7.55 | – | –
5 | CC(=O)O[C@@H](C)/C=C\C(=O)N[C@@H]1C[C@H](C)[C@H](C/C=C(C)/C=C/[C@H]2O[C@H](CC(=O)Nc3ccc(C(N)=O)cc3)C[C@@]3(CO3)[C@@H]2O)O[C@@H]1C [#B267, (2S,3Z)-5-{[(2R,3R,5S,6S)-6-{(2E,4E)-5-[(3R,4R,5R,7S)-7-{2-[(4-carbamoylphenyl)amino]-2-oxoethyl}-4-hydroxy-1,6-dioxaspiro[2.5]oct-5-yl]-3-methylpenta-2,4-dien-1-yl}-2,5-dimethyltetrahydro-2H-pyran-3-yl]amino}-5-oxopent-3-en-2-yl acetate] | 7.62 | 8.46 | – | –
6 | CC(/C=C/[C@@H]1C[C@]2(CO2)C[C@@H](CC(N)=O)O1)=C\C[C@@H]1O[C@H](C)[C@H](NC(=O)/C=C/C(C)N)C[C@@H]1C (stereo partly drawn) [#B271, (2E)-4-amino-N-[(2R,3R,5S,6S)-6-{(2E,4E)-5-[(3S,5S,7S)-7-(2-amino-2-oxoethyl)-1,6-dioxaspiro[2.5]oct-5-yl]-3-methylpenta-2,4-dien-1-yl}-2,5-dimethyltetrahydro-2H-pyran-3-yl]pent-2-enamide] | – | – | < 7.00 | < 7.00
7 | CC(/C=C/[C@@H]1C[C@]2(CO2)C[C@@H](CC(N)=O)O1)=C\C[C@@H]1O[C@H](C)[C@H](NC(=O)/C=C\C(C)N)C[C@@H]1C (stereo partly drawn) [#B272, (2Z)-4-amino-N-[(2R,3R,5S,6S)-6-{(2E,4E)-5-[(3S,5S,7S)-7-(2-amino-2-oxoethyl)-1,6-dioxaspiro[2.5]oct-5-yl]-3-methylpenta-2,4-dien-1-yl}-2,5-dimethyltetrahydro-2H-pyran-3-yl]pent-2-enamide] | < 7.00 | < 7.00 | – | –
8 | CC(/C=C/[C@@H]1C[C@]2(CO2)C[C@@H](CC(N)=O)O1)=C\C[C@@H]1O[C@H](C)[C@H](NC(=O)/C=C/C(C)N)C[C@@H]1C (stereo partly drawn) [#B273, (2E)-4-amino-N-[(2R,3R,5S,6S)-6-{(2E,4E)-5-[(3S,5S,7S)-7-(2-amino-2-oxoethyl)-1,6-dioxaspiro[2.5]oct-5-yl]-3-methylpenta-2,4-dien-1-yl}-2,5-dimethyltetrahydro-2H-pyran-3-yl]pent-2-enamide] | – | – | < 6.00 | 6.22
9 | CCCNC(=O)C[C@]1(O)C[C@@]2(CO2)[C@H](O)[C@@H](/C=C/C(C)=C/C[C@@H]2O[C@H](C)[C@H](NC(=O)/C=C\[C@H](C)OC(C)=O)C[C@@H]2C)O1 [#B275, (2S,3Z)-5-({(2R,3R,5S,6S)-6-[(2E,4E)-5-{(3R,4R,5R,7S)-4,7-dihydroxy-7-[2-oxo-2-(propylamino)ethyl]-1,6-dioxaspiro[2.5]oct-5-yl}-3-methylpenta-2,4-dien-1-yl]-2,5-dimethyltetrahydro-2H-pyran-3-yl}amino)-5-oxopent-3-en-2-yl acetate] | 7.65 | 8.27 | – | –
10 | COC(=O)C[C@@H]1C[C@@](O)(CCl)[C@H](O)[C@@H](/C=C/C(C)=C/C[C@@H]2O[C@H](C)[C@H](NC(=O)/C=C\[C@H](C)OC(C)=O)C[C@@H]2C)O1 [#B284, (1S,5R)-5-{(1E,3E)-5-[(2S,3S,5R,6R)-5-{[(2Z,4S)-4-(acetyloxy)pent-2-enoyl]amino}-3,6-dimethyltetrahydro-2H-pyran-2-yl]-3-methylpenta-1,3-dien-1-yl}-1,5-anhydro-3-C-(chloromethyl)-2-deoxy-1-(2-methoxy-2-oxoethyl)-D-erythro-pentitol] | 8.69 | 8.89 | – | –
11 | CCCNC(=O)C[C@@H]1C[C@@](O)(CCl)C[C@@H](/C=C/C(C)=C/C[C@@H]2O[C@H](C)[C@H](NC(=O)/C=C\[C@H](C)OC(C)=O)C[C@@H]2C)O1 [#B285, (2S,3Z)-5-({(2R,3R,5S,6S)-6-[(2E,4E)-5-{(2S,4S,6S)-4-(chloromethyl)-4-hydroxy-6-[2-oxo-2-(propylamino)ethyl]tetrahydro-2H-pyran-2-yl}-3-methylpenta-2,4-dien-1-yl]-2,5-dimethyltetrahydro-2H-pyran-3-yl}amino)-5-oxopent-3-en-2-yl acetate] | 7.93 | 8.12 | – | –
12 | CCCNC(=O)C[C@@H]1C[C@@](O)(CCl)[C@H](O)[C@@H](/C=C/C(C)=C/C[C@@H]2O[C@H](C)[C@H](NC(=O)/C=C\[C@H](C)OC(C)=O)C[C@@H]2C)O1 [#B286, (1S,5R)-5-{(1E,3E)-5-[(2S,3S,5R,6R)-5-{[(2Z,4S)-4-(acetyloxy)pent-2-enoyl]amino}-3,6-dimethyltetrahydro-2H-pyran-2-yl]-3-methylpenta-1,3-dien-1-yl}-1,5-anhydro-3-C-(chloromethyl)-2-deoxy-1-[2-oxo-2-(propylamino)ethyl]-D-erythro-pentitol] | 8.96 | 9.41 | – | –
